Here are results for 1 sequence from US5776892A, “Anti-inflammatory peptides” (Curative Health Services, Inc., priority 1994, dated 1998).

Read-outs that look alike come from different tables or passages of the source. No end group written: not given here.

Data set [1] deals with neutrophils. In words: Neutrophil chemotaxis to interleukin-8. The class given is cell-based. The settings on record: 15 min pre-exposure; read at 1 hr; FIG. 5. The procedure: (§1) The ability of CT-112 (SEQ. ID NO: 1) to inhibit chemotaxis of neutrophils in response to a variety of agents was assessed using Neuroprobe chemotaxis chambers. For these assays, neutrophils were resuspended in Hank's balanced salt solution with Ca^2+ and Mg^2+ to give a 5×10^6 cells/ml suspension after the cells were labeled with 1',7'-bis(2-carboxyethyl)-5-(6)-carboxyfluorescein. The neutrophils were exposed to CT-112 (SEQ. ID NO: 1) for approximately 15 min prior to addition to the chemotaxis chambers. CT-112 (SEQ. ID NO: 1) was present in both the top and bottom of the chambers, and the chemoattractant, either f-Met-Leu-Phe, leukotriene B4 or interleukin-8, was added to the bottom of chamber. Cells which had migrated through the membrane were determined by fluorescence at 530 nm at 1 hr after initiation of the assay.

Another data set in a line: Acute toxicity in rats. It is filed as in vivo, rat. The settings on record: rats, 100, 500 or 1,000 mg/kg. The procedure:
Rats were dosed with CT-112 (SEQ. ID NO: 1) at 100, 500 or 1,000 mg/kg. […] All rats returned to normal appearance the day after treatment.

Data set [2] relates to type-II collagen-induced arthritis. It is filed as in vivo, mouse. The procedure: Mice (DBA/1, 10-12 weeks old, Jackson Laboratories) were randomly assigned to one of 3 groups […]. CT-112 (SEQ. ID NO: 1) was prepared for injection by dissolving in sterile PBS. CT-112 (SEQ. ID NO: 1) was administered daily according to the following schedule: a) Control animals (0.1 ml of sterile PBS) (7 mice); b) Low dose CT-112 (0.1 ml sterile PBS containing 0.25 mg CT-112 at 10 mg/kg) (8 mice); and c) High dose CT-112 (0.1 ml sterile PBS containing 2.5 mg of CT-112 at 100 mg/kg) (8 mice). Three days after initial dosing with CT-112 (SEQ. ID NO: 1), all mice were injected intradermally at the base of the tail with 100 μg of bovine type-II collagen in Freund's complete adjuvant. Mice were monitored daily for the onset of disease, and weighed twice weekly with overall health status noted. Arthritis-affected animals were clinically assessed 5 times per week until 10 weeks post-immunization. Paw measurements were taken 3 times per week. Mice lacking signs of arthritis 10 weeks post-immunizationwere considered disease-free. All mice were pre-bled prior to the start of the trial, subsequently again at 2 and 4 weeks post-immunization, again at the onset of CIA, and finally at the termination of the study. Sera were separated and stored at -80° C. ELISA assays were performed to determine anti-collagen antibody concentrations. Spleen and lymph nodes were removed at sacrifice, and single cell suspensions prepared therefrom. Mitogen responses to Con A and LPS, as well as antigen-specific responses to type-II collagen, were determined. Appropriate statistical comparisons (Chi square, Student's T-test and non-parametric median comparisons) were performed using SPSS/PC software to assess the influence of CT-112 (SEQ. ID NO: 1) at both low and high doses on the incidence, onset, severity and progression of collagen-induced arthritis, the antibody response to collagen, T-cell and B-cell mitogen responses, and T-cell specific responses to type-II collagen.

The subject of data set [3] is neutrophils. Description: Neutrophil chemotaxis to leukotriene B4. The class given is cell-based. The settings on record: 15 min pre-exposure; read at 1 hr; FIG. 4. The procedure:
as §1

For data set [4], the system named is DNCB-induced delayed-type hypersensitivity. In words: Delayed-type hypersensitivity to DNCB, ear thickness. The class given is in vivo, mouse. The procedure:
CT-112 (SEQ. ID NO: 1) was tested for its ability to modulate the immune response in a mouse model of delayed hypersensitivity (Filipp et al., 1984, Allergy, 39: 499-507; Diezel et al., 1989 J. Invest. Dermatol. 93:322-326). The mice used in this study were 8-wk old hairless females (Jackson Laboratories). The mice were sensitized to a contact allergen (1-chloro-2,4-dinitrobenzene, DNCB) by painting the dorsothoracic region twice daily for 5 consecutive days with 50 μl of 0.5% DNCB in 75% acetone:25% vegetable oil. The animals were allowed to rest for 24 hr prior to challenge with DNCB. On the sixth day after initiation of the sensitization treatments, the animals were challenged with 50 μl of DNCB solution applied to the left ear. After 24 hrs, the ear thickness was determined and compared to the unchallenged ear.
The treatment groups were as follows:
b) Prednisone (intraperitoneal injection of 25 mg/kg, 2 hr prior to challenge);
d) CT-112 (intraperitoneal injections of 60 mg/kg/injection at 3, 1, and 0.25 hr prior to challenge and 3, 6 and 21 hr post-challenge);
e) DMSO control (topical application of 50 μl at 3, 1 and 0.25 hr prior to challenge; and
f) CT-112 in DMSO (20 mg/ml, topical application of 50 μl at 3, 1, and 0.25 hr prior to challenge and 3, 6 and 21 hr post-challenge).

Setting [5] is: ip 60 mg/kg/injection at 3, 1, 0.25 hr prior and 3, 6, 21 hr post-challenge.
The mark [6] stands for this setting: topical 50 μl of 20 mg/ml in DMSO at 3, 1, 0.25 hr prior and 3, 6, 21 hr post-challenge.

Regarding “TTSQVRPR [CT-112, octapeptide derived from platelet factor 4]”, the “chemotactic migration of neutrophils to interleukin-8” value in the data set with neutrophils [1] is “not to interleukin-8”. In addition, in the data set “Acute toxicity in rats”, the lesions at necropsy entry is given as “No lesions were visible at necropsy”. Besides, the “mean body weight and mean body weight gain vs control” value in the data set “Acute toxicity in rats” is “no statistical differences”. The clinical effects result in the data set “Acute toxicity in rats” (several rats at 500 and 1,000 mg/kg, day of treatment) is “Transient clinical effects (hypoactivity, hypersensitiviy, staggered gait, cyanosis and absence of righting reflex)”. In addition, the “anti-collagen antibody reduction in serum” value in data set [2] (4 wks post-immunization, high dose group, p=0.028, FIG. 14) was “statistically significant”. The “effects on synovitis and pannus (histopathology)” value in data set [2] (both high and low doses, FIG. 13) is listed as “not significant”. The “disease-induced loss of joint architecture (histopathology)” value in data set [2] (both high and low doses, p≤0.05, FIG. 13) was “significantly reducing”. Further, the “spleen cell response to Con A and to LPS” value in data set [2] (cells from treated mice) is on record as “neither immunosuppression nor immunoactivation”. Besides, the “final incidence of CIA” value in data set [2] (high dose, 100 mg/kg daily) amounted to 50%; in data set [2] (low dose, 10 mg/kg daily), 62.5%. Besides, the Maximum paw swelling entry in data set [2] (low and high dose) is reported as “not influenced”. Further, the “involved paws in remission at the conclusion of the trial” value in data set [2] (low dose, 10 mg/kg daily) was found to be 25%. Moreover, in data set [2] (low dose, 10 mg/kg daily, p=0.035 vs control, FIG. 11), the “number of involved paws” value was “significantly fewer paws”. The “chemotactic migration of neutrophils to LTB4” value in the data set on neutrophils [3] is “effectively inhibited”. Also, the “% Inhibition of Inflammation” value in data set [4] (7-day pump, 60 mg/kg/24 hr) is 79.7%; in data set [4] (setting [5]) it was 68.4%; in data set [4] (setting [6]) it was 18.2%. Also, the “Thickness Difference (Left-Right)” value in data set [4] (7-day pump, 60 mg/kg/24 hr) is reported as 0.00087 ± 0.000398 in; in data set [4] (setting [5]) it was 0.00169 ± 0.000643 in; in data set [4] (setting [6]), 0.0035 ± 0.000408 in.
